Assay results taken from patent US20100069246A1, “Herbicide Combination Comprising Dimethoxytriazinyl-Substituted Difluoromethanesulfonylanilides” (BAYER CROPSCIENCE AG, priority 2008, published 2010).

Tests used:
Experiment in all cases: Post-emergence action, greenhouse pot test, visual scoring
Type in all cases: in vivo
[1] = system: Abuthilon theophrasti (ABUTH)
Protocol: (§1) Seeds or rhizome pieces of mono- and dicotyledonous harmful and useful plants were placed in peat pots (diameter 4 cm) filled with sandy loam and then covered with soil. The pots were kept in a greenhouse under optimum conditions. In addition, harmful plants encountered in paddy rice cultivation were cultivated in pots with a water level 2 cm above the soil surface.
(§2) About three weeks after the start of the cultivation, the test plants were treated at the 2- to 3-leaf stage. The herbicides, formulated as powder or liquid concentrates, were, either alone or in the combinations according to the invention, sprayed in various dosages on to the green parts of the plants using an application rate of 600 l of water/ha (converted). For further cultivation of the plants, the pots were then again kept under optimum conditions in a greenhouse.
(§3) The visual scoring of the herbicidal effects was carried out in intervals up to 21 days after the treatment. Scoring was carried out in percent in comparison to the untreated control plants. 0%=no herbicidal activity, 100%=complete herbicidal activity=complete kill.
(§4) The percentages from the treatments with the herbicides alone (=individual application) and with the combinations according to the invention (=mixtures) were employed to calculate interactions using the method of Colby. When the observed efficacies of the mixtures exceed the formal sum of the values of the tests with individual applications, they also exceed the expected value according to Colby, which is calculated using the formula below (cf. S. R. Colby; in Weeds 15 (1967) pp. 20 to 22):
(§5) Here: • A, B=activity of components A and B in percent at a dosage of a and b g of ai/ha (=gramm of active substance per hectare), respectively. • E=expected value in % at a dosage of a+b g of ai/ha.

[2] = system: Alopecurus myosuroides (ALOMY)
Protocol: as §1, §2, §3, §4, §5

[3] = system: Amaranthus retroflexus (AMARE)
Protocol: as §1, §2, §3, §4, §5

[4] = system: Echinochloa crus-galli (ECHCG); conditions: 21 DAT
Protocol: as §1, §2, §3, §4, §5

[5] = system: Fallopia (ex Polygonum) convolvulus (POLCO)
Protocol: as §1, §2, §3, §4, §5

[6] = system: Matricaria inodora (MATIN)
Protocol: as §1, §2, §3, §4, §5

[7] = system: Oryza sativa (ORYSA)
Protocol: as §1, §2, §3, §4, §5

[8] = system: Pharbitis purpurea (PHBPU)
Protocol: as §1, §2, §3, §4, §5

[9] = system: Setaria viridis (SETVI)
Protocol: as §1, §2, §3, §4, §5

[10] = system: Triticum aestivum (TRZAS); conditions: 10 DAT
Protocol: as §1, §2, §3, §4, §5

[11] = system: Zea mays (ZEAMX)
Protocol: as §1, §2, §3, §4, §5

[12] = system: Avena fatua (AVEFA)
Protocol: as §1, §2, §3, §4, §5

[13] = system: Lolium multiflorum (LOLMU)
Protocol: as §1, §2, §3, §4, §5

[14] = system: Veronica persica (VERPE)
Protocol: as §1, §2, §3, §4, §5

[15] = system: Viola tricolor (VIOTR)
Protocol: as §1, §2, §3, §4, §5

[16] = system: Cyperus esculentus (CYPES); conditions: 21 DAT
Protocol: as §1, §2, §3, §4, §5

[17] = 21 DAT, component A 4 g of ai/ha
[18] = 21 DAT, component A 12 g of ai/ha
[19] = 10 DAT, component A 4 g of ai/ha
[20] = 10 DAT, component B 300 g of ai/ha
[21] = 21 DAT, component B 300 g of ai/ha
[22] = 21 DAT, component B 900 g of ai/ha
[23] = 10 DAT, component B 900 g of ai/ha
[24] = 10 DAT, component B 400 g of ai/ha
[25] = 10 DAT, component B 1200 g of ai/ha
[26] = 21 DAT, component B 400 g of ai/ha
[27] = 21 DAT, component B 1200 g of ai/ha

Compound: COc1nc(OC)nc(C(=O)c2cccc(F)c2N(C)S(=O)(=O)C(F)F)n1 [A-1]
- % activity found [1, 17]: 85%
- % activity found [1, 18]: 85%
- % activity found [2, 19]: 40%
- % activity found [2, 17]: 40%
- % activity found [3, 17]: 70%
- % activity found ([4]; component A 4 g of ai/ha): 85%
- % activity found [5, 18]: 70%
- % activity found [6, 18]: 60%
- % activity found [7, 18]: 10%
- % activity found ([8]; 10 DAT, component A 12 g of ai/ha): 60%
- % activity found [8, 17]: 60%
- % activity found [9, 19]: 50%
- % activity found ([10]; component A 4 g of ai/ha): 0%
- % activity found [11, 19]: 0%
- % activity found [11, 18]: 0%

Compound: CC(C)(NC(=O)NCc1ccccc1Cl)c1ccccc1 [B1-1, N-[(2-chlorophenyl)methyl]-N′-(1-methyl-1-phenylethyl)urea]
- % activity found [1, 20]: 0%
- % activity found [1, 21]: 0%
- % activity found [1, 22]: 0%
- % activity found [2, 20]: 0%
- % activity found [2, 23]: 0%
- % activity found [2, 21]: 0%
- % activity found [2, 22]: 0%
- % activity found [3, 21]: 0%
- % activity found [3, 22]: 20%
- % activity found [12, 20]: 0%
- % activity found [12, 23]: 0%
- % activity found ([4]; component B 300 g of ai/ha): 0%
- % activity found [5, 21]: 0%
- % activity found [5, 22]: 0%
- % activity found [13, 22]: 0%
- % activity found [6, 20]: 20%
- % activity found [6, 21]: 0%
- % activity found [6, 22]: 0%
- % activity found [7, 20]: 0%
- % activity found [8, 20]: 0%
- % activity found [8, 23]: 0%
- % activity found [8, 21]: 0%
- % activity found [8, 22]: 30%
- % activity found [9, 20]: 0%
- % activity found [9, 23]: 0%
- % activity found [9, 21]: 0%
- % activity found [9, 22]: 0%
- % activity found ([10]; component B 900 g of ai/ha): 5%
- % activity found [14, 20]: 0%
- % activity found [14, 23]: 0%
- % activity found [14, 21]: 0%
- % activity found [14, 22]: 0%
- % activity found [15, 22]: 10%
- % activity found [11, 20]: 0%
- % activity found [11, 23]: 0%
- % activity found [11, 21]: 5%
- % activity found [11, 22]: 0%

Compound: Cc1ccc(NC(=O)NC(C)(C)c2ccccc2)cc1 [B2-4, N-(4-methylphenyl)-N′-(1-methyl-1-phenylethyl)urea]
- % activity found [1, 24]: 0%
- % activity found [1, 25]: 0%
- % activity found [1, 26]: 0%
- % activity found [1, 27]: 0%
- % activity found [2, 24]: 0%
- % activity found [2, 26]: 0%
- % activity found [2, 27]: 0%
- % activity found [3, 25]: 0%
- % activity found [3, 26]: 0%
- % activity found [3, 27]: 0%
- % activity found [12, 26]: 0%
- % activity found [12, 27]: 0%
- % activity found ([16]; component B 400 g of ai/ha): 0%
- % activity found ([16]; component B 1200 g of ai/ha): 0%
- % activity found [5, 24]: 0%
- % activity found [5, 25]: 0%
- % activity found [5, 26]: 0%
- % activity found [5, 27]: 0%
- % activity found [13, 24]: 0%
- % activity found [13, 25]: 0%
- % activity found [13, 26]: 0%
- % activity found [13, 27]: 0%
- % activity found [6, 24]: 0%
- % activity found [6, 25]: 0%
- % activity found [6, 26]: 0%
- % activity found [6, 27]: 20%
- % activity found [7, 27]: 10%
- % activity found [8, 24]: 0%
- % activity found [8, 25]: 0%
- % activity found [8, 26]: 0%
- % activity found [8, 27]: 0%
- % activity found [9, 27]: 40%
- % activity found ([10]; component B 400 g of ai/ha): 0%
- % activity found ([10]; component B 1200 g of ai/ha): 0%
- % activity found [14, 26]: 0%
- % activity found [14, 27]: 0%
- % activity found [15, 24]: 0%
- % activity found [15, 25]: 0%
- % activity found [15, 26]: 0%
- % activity found [15, 27]: 0%
- % activity found [11, 24]: 0%
- % activity found [11, 25]: 10%
